Values of other authors in patent publication JPH06128153A, “トラニラスト軟膏組成物およびその製造方法” (Kissei Pharmaceutical Co Ltd, priority 1992, dated 1994).
Like-named read-outs stand apart in the source and are kept apart here.

Settings: stated as known, no test described

For `COc1ccc(/C=C/C(=O)Nc2ccccc2C(=O)O)cc1OC` [トラニラスト], the solubility in water is listed as “極めて難溶”.
In the case of `COc1ccc(/C=C/C(=O)Nc2ccccc2C(=O)O)cc1OC` [ナトリウム塩], the solubility in water (ナトリウム塩) is given as “わずかしか溶解しない”.
